Experimental findings from patent publication US8088801B2, “Aryloazol-2-yl cyanoethylamino compounds, method of making and method of using thereof” (Merial Limited, priority 2007, dated 2012) are described below.

Assay [1] has as its system Trichostrongylus colubriformis. Nature of the assay: Method D: screening against Trichostrongylus colubriformis, L1 larvae in microtitre plate. The conditions noted are these: 96 h, 4 days assessment, read-out: motility inhibition; for inhibition at 0.15 ppm: test concentration 0.15 ppm; for inhibition at 0.01 ppm: test concentration 0.01 ppm; for inhibition at 0.0025 ppm: test concentration 0.0025 ppm. On the procedure:
Method D: Screening Method to Test Activity of Compounds Against Trichostrongylus colubriformis.
Twenty L1 Trichostrongylus colubriformis larvae were added to wells of a microtitre plate containing a nutrient medium and the test compound in DMSO. The microtitre plate was then held at 27° C. where the L1 larvae were allowed to develop. An analysis was conducted at 4 days to determine successful development to the L3 stage. Larvae exposed to DMSO and no test compound served as controls. Compounds numbers 1.008, 1.014, 1.042, 1.047, 1.048, 1.073, 2.001, 2.003 and 2.020, gave at least 90% motility inhibition at a test concentration of 0.15 ppm at the 4 days assessment. Compounds numbers 1.001, 1.003, 1.007, 1.011, 1.037, 1.038, 1.043, 1.056, 1.066, 1.070, 1.071, 2.012 and 2.016, gave at least 90% motility inhibition at a test concentration of 0.04 ppm at the 4 days assessment. Compounds numbers 1.012, 1.020, 1.021, 1.033, 1.034, 1.039, 1.064, 1.065, 2.008, 2.009 and 3.005 gave at least 90% motility inhibition at a test concentration of 0.01 ppm at the 4 days assessment. Compounds numbers 1.094, 2.040, 2.048, 2.049, 3.006, 3.009, 3.011 and 3.012 gave at least 90% motility inhibition at a test concentration of 0.0025 ppm at the 4 days assessment.

Assay [2] concerns Haemonchus contortus. The assay can be described thus: Method A: screening against Haemonchus contortus, L1 larvae in microtitre plate. The conditions noted are these: 96 h, 4 days assessment, read-out: motility inhibition; for inhibition at 0.15 ppm: test concentration 0.15 ppm; for inhibition at 0.01 ppm: test concentration 0.01 ppm; for inhibition at 0.0025 ppm: test concentration 0.0025 ppm. The source says:
Method A: Screening Method to Test Activity of Compounds Against Haemonchus contortus.

Assay [3] concerns Haemonchus contortus. Nature of the assay: Method B: Haemonchus contortus in vivo in Mongolian gerbil, oral gavage. Also on record: species or system Mongolian gerbil (Meriones unguiculatus). The following applies: 72 h, Mongolian gerbils, read-out: reduction in nematode infestation; for inhibition in vivo at 100 mg/kg: necropsy 3 days after treatment. On the procedure: Method B: Screening Method to Test Activity of Compounds Against Haemonchus contortus In Vivo in Mongolian Gerbil (Meriones unguiculatus).
Mongolian gerbils, at least five weeks old, were immunosuppressed and artificially infected with ca. 1000 ensheathed Haemonchus contortus third instar larvae. Six days after infection, the Mongolian gerbils were treated by oral gavage with the test compounds, dissolved in a mixture of 2 parts DMSO and 1 part polyethylene glycol (PEG400), at doses of 100 mg/kg and dissolved in pure polyethylene glycol (PEG400) at doses of 10 and 1 mg/kg. Jirds treated only with the placebo (2 parts DMSO and 1 part PEG400 or pure PEG400) served as controls. On day 9 (3 days after treatment) the jirds were euthanized and necropsied for recovery of parasites from the stomach. Efficacy was calculated as the average % reduction in the number of worms in each test group compared with the average number of worms from the control group. […] Compound numbers 1.001, 1.008, 1.012, 1.013 and 1.014 provided at least 95% reduction in nematode infestation in Mongolian gerbils treated by oral gavage with test article at a dose of 100 mg/kg. Compound numbers 1.012, 1.033, 1.064, 2.008, 2.037, 2.038, 2.040, 2.041, 3.001 provided at least 95% reduction in nematode infestation at a dose of 10 mg/kg. Compound numbers 1.094, 2.048, 3.001, 3.007 and 3.009, provided at least 95% reduction in nematode infestation at a dose of 1 mg/kg. Compound numbers 3.005, 3.006, 3.011, 3.012, 3.017 and 3.019, provided at least 95% reduction in nematode infestation at a dose of 0.5 mg/kg.

Assay [4] deals with Microfilaria of Dirofilaria immitis. The assay can be described thus: Method F: microfilaria of Dirofilaria immitis in microtitre plate. The conditions noted are these: test concentration 50 ppm, assessment at 24 hours, read-out: motility inhibition. On the procedure:
Method F: Screening Method to Test Activity of Compounds Against Microfilaria of Dirofilaria immitis.
Four hundred to six hundred microfilaria of Dirofilaria immitis were added to wells of a microtitre plate containing buffer and the test compound in DMSO. The microtitre plate was then held at 37° C. in an environment containing 5% CO2. An assessment was conducted at 24 hours to determine survival of the microfilaria. Microfilaria exposed to DMSO and no test compound served as controls. Compounds numbers 1.003, 1.012, 1.013, 1.064, 1.086, 1.087, 1.090, 1.094, 2.043, 2.046, 2.047, 2.048, 2.049, 3.005, 3.006, 3.009, 3.011, 3.012, 3.017, 3.019 and 3.023 gave at least 90% motility inhibition at a test concentration of 50 ppm.

Molecules are shown by their SMILES.

Regarding `CC(C#N)(Cn1nc2ccc(C(F)(F)F)cc2n1)NC(=O)c1ccc(OC(F)(F)F)cc1` (centres unmarked) [Compound 1.008, N-[1-Cyano-1-methyl-2-(5-trifluoromethyl-2H-benzotriazol-2-yl)ethyl]-4-trifluoromethoxybenzamide], the inhibition at 0.15 ppm in assay [1] and in assay [2] was ≥ 90% each time. Further, in assay [3], the inhibition in vivo at 100 mg/kg is ≥ 95%.
On to `CC(C#N)(Cn1nc2cc(Cl)cc(Cl)c2n1)NC(=O)c1ccc(OC(F)(F)F)cc1` (centres unmarked) [Compound 1.012, N-[1-Cyano-2-(4,6-dichloro-2H-benzotriazol-2-yl)-1-methylethyl]-4-trifluoromethoxybenzamide], for which the inhibition at 0.01 ppm in assay [1] is ≥ 90%. In addition, the inhibition at 0.01 ppm in assay [2] was ≥ 90%. Also, the inhibition at 50 ppm in assay [4] is ≥ 90%. In assay [3], the inhibition in vivo at 10 mg/kg was ≥ 95% and the inhibition in vivo at 100 mg/kg is ≥ 95%.
Regarding `CC(C#N)(Cn1nc2cc(C(F)(F)F)cc(Cl)c2n1)NC(=O)c1ccc(OC(F)(F)F)cc1` (centres unmarked) [Compound 1.014, N-[2-(4-Chloro-6-trifluoromethyl-2H-benzotriazol-2-yl)-1-cyano-1-methylethyl]-4-trifluoromethoxybenzamide], the inhibition at 0.15 ppm in assay [1] and in assay [2] was ≥ 90% in each case. Besides, the inhibition in vivo at 100 mg/kg in assay [3] is ≥ 95%.
For `Cc1cc(Cl)cc2nn(CC(C)(C#N)NC(=O)c3ccc(OC(F)(F)F)cc3)nc12` (centres unmarked) [Compound 1.033, N-[−2-(6-Chloro-4-methyl-2H-benzotriazol-2-yl)-1-cyano-1-methylethyl]-4-trifluoromethoxybenzamide], the inhibition at 0.01 ppm in assay [1] and in assay [2] was ≥ 90% throughout. Moreover, the inhibition in vivo at 10 mg/kg in assay [3] was ≥ 95%.
As to `CC(C#N)(Cn1nc2c(Cl)cc(Cl)c(Cl)c2n1)NC(=O)c1ccc(OC(F)(F)F)cc1` (centres unmarked) [Compound 1.064, N-[1-Cyano-1-methyl-2-(4,5,7-trichloro-2H-benzotriazol-2-yl)-ethyl]-4-trifluoromethoxybenzamide], in assay [1], the inhibition at 0.01 ppm was ≥ 90%. Moreover, the inhibition at 0.0025 ppm in assay [2] is ≥ 90%. For the same compound, the inhibition at 50 ppm in assay [4] is ≥ 90%. The inhibition in vivo at 10 mg/kg in assay [3] was ≥ 95%.
As for `CC(C#N)(Cn1nc2c(Cl)cc(Cl)c(Br)c2n1)NC(=O)c1ccc(OC(F)(F)F)cc1` (centres unmarked) [Compound 1.086, N-[2-(4-Bromo-5,7-dichloro-2H-benzotriazol-2-yl)-1-cyano-1-methylethyl]-4-trifluoromethoxybenzamide], the inhibition at 0.0025 ppm in assay [2] is ≥ 90%. Also, the inhibition at 50 ppm in assay [4] is ≥ 90%.
Regarding `CC(C#N)(Cn1nc2c(Cl)cc(Cl)c(F)c2n1)NC(=O)c1ccc(OC(F)(F)F)cc1` (centres unmarked) [Compound 1.090, N-[1-Cyano-2-(5,7-dichloro-4-fluoro-2H-benzotriazol-2-yl)-1-methylethyl]-4-trifluoromethoxybenzamide], the inhibition at 0.0025 ppm in assay [2] was ≥ 90%. Further, in assay [4], the inhibition at 50 ppm is ≥ 90%.
For `Cc1cc(Br)c(F)c2nn(CC(C)(C#N)NC(=O)c3ccc(OC(F)(F)F)cc3)nc12` (centres unmarked) [Compound 1.094, N-[2-(5-bromo-4-fluoro-7-methyl-2H-benzotriazol-2-yl)-1-cyano-1-methylethyl]-4-trifluoromethoxybenzamide], the inhibition at 0.0025 ppm in assay [1] and in assay [2] was ≥ 90% in each case. Further, the inhibition at 50 ppm in assay [4] is ≥ 90%. Besides, the inhibition in vivo at 1 mg/kg in assay [3] was ≥ 95%.
For `COc1c2ccc(Cl)cc2nn1CC(C)(C#N)NC(=O)c1ccc(OC(F)(F)F)cc1` (centres unmarked) [Compound 2.008, N-[2-(6-Chloro-3-methoxy-2H-indazol-2-yl)-1-cyano-1-methylethyl]-4-trifluoromethoxybenzamide], in assay [1], the inhibition at 0.01 ppm was ≥ 90%. The inhibition at 0.0025 ppm in assay [2] is ≥ 90%. In assay [3], the inhibition in vivo at 10 mg/kg is ≥ 95%.
On to `CC(C#N)(Cn1cc2c(Cl)cc(Cl)cc2n1)NC(=O)c1ccc(OC(F)(F)F)cc1` (centres unmarked) [Compound 2.040, N-[1-Cyano-2-(4,6-dichloro-2H-indazol-2-yl)-1-methylethyl]-4-trifluoromethoxybenzamide], for which the inhibition at 0.0025 ppm in assay [1] and in assay [2] was ≥ 90% in each case. For the same compound, the inhibition in vivo at 10 mg/kg in assay [3] is ≥ 95%.
For `CC(C#N)(Cn1cc2ccc(Cl)c(Br)c2n1)NC(=O)c1ccc(OC(F)(F)F)cc1` (centres unmarked) [Compound 2.043, N-[2-(7-Bromo-6-chloro-2H-indazol-2-yl)-1-cyano-1-methylethyl]-4-trifluoromethoxybenzamide], in assay [2], the inhibition at 0.0025 ppm was ≥ 90%. Moreover, in assay [4], the inhibition at 50 ppm is ≥ 90%.
With `CC(C#N)(Cn1nc2c(Br)c(Cl)cc(Cl)c2c1Br)NC(=O)c1ccc(OC(F)(F)F)cc1` (centres unmarked) [Compound 2.046, N-[1-Cyano-2-(3,7-dibromo-4,6-dichloro-2H-indazol-2-yl)-1-methylethyl]-4-trifluoromethoxybenzamide], the inhibition at 0.0025 ppm in assay [2] is ≥ 90%. The inhibition at 50 ppm in assay [4] is ≥ 90%.
As for `CC(C#N)(Cn1cc2c(Cl)cc(Cl)c(Cl)c2n1)NC(=O)c1ccc(OC(F)(F)F)cc1` (centres unmarked) [Compound 2.048, N-[1-Cyano-1-methyl-2-(4,6,7-trichloro-2H-indazol-2-yl)ethyl]-4-trifluoromethoxybenzamide], the inhibition at 0.0025 ppm in assay [1] and in assay [2] was ≥ 90% each time. For the same compound, the inhibition at 50 ppm in assay [4] is ≥ 90%. In assay [3], the inhibition in vivo at 1 mg/kg was ≥ 95%.
Turning to `CC(C#N)(Cn1cc2ncc(Cl)cc2n1)NC(=O)c1ccc(OC(F)(F)F)cc1` (centres unmarked) [Compound 3.005, N-[2-(6-Chloro-2H-pyrazolo[4,3-b]pyridin-2-yl)-1-cyano-1-methylethyl]-4-trifluoromethoxybenzamide], the inhibition at 0.01 ppm in assay [1] and in assay [2] was ≥ 90% throughout. Besides, the inhibition at 50 ppm in assay [4] was ≥ 90%. Further, the inhibition in vivo at 0.5 mg/kg in assay [3] was ≥ 95%.
In the case of `CC(C#N)(Cn1nc2cc(Cl)cnc2c1Cl)NC(=O)c1ccc(OC(F)(F)F)cc1` (centres unmarked) [Compound 3.017, N-[1-Cyano-2-(3,6-dichloro-2H-pyrazolo[4,3-b]pyridin-2-yl)-1-methylethyl]-4-trifluoromethoxybenzamide], in assay [2], the inhibition at 0.01 ppm was ≥ 90%. The inhibition at 50 ppm in assay [4] was ≥ 90%. In addition, the inhibition in vivo at 0.5 mg/kg in assay [3] is ≥ 95%.
Turning to `CC(C#N)(Cn1nc2cc(Cl)cnc2c1Br)NC(=O)c1ccc(OC(F)(F)F)cc1` (centres unmarked) [Compound 3.019, N-[2-(3-Bromo-6-chloro-2H-pyrazolo[4,3-b]pyridin-2-yl)-1-cyano-1-methylethyl]-4-trifluoromethoxybenzamide], the inhibition at 0.04 ppm in assay [2] (test concentration 0.04 ppm) was ≥ 90%. The inhibition at 50 ppm in assay [4] is ≥ 90%. In addition, the inhibition in vivo at 0.5 mg/kg in assay [3] is ≥ 95%.

By inhibition is commonly meant the percentage by which the read-out fell short of the control.
